Results on 8 molecules are retold here after article PMC10475017, “Design, synthesis, computational study and cytotoxic evaluation of some new quinazoline derivatives containing pyrimidine moiety” (Scientific Reports, 2023).

Series [1] has as its system A549 cell line. In words: Annexin V/PI apoptosis detection by flow cytometry. It is filed as cell-based, human. To be noted: 72 h. The method, then: Annexin V was applied to detect the phosphatidyl serin, which moved to outer membrane during apoptosis, and PI was used to distinguish live and dead cells.
After the incubation time, AnnexinV/PI staining using eBioscience™ Annexin V apoptosis detection kit (Invitrogen). The cells were gently harvested and washed once with 1X phosphate buffered saline (PBS), and once with 1000 μL 1X binding buffer. In the next step, the cells were suspended in 100 μL binding buffer containing 5 μL fluorescein isothiocyanate conjugated (FITC) Annexin V for 15 min and 5 μL Propodium Iodide (PI) solution. The cells were then acquired on BD FACS Calibur™ flow cytometry (BD Biosciences, San Jose, CA, USA) and apoptosis rates were calculated as the sum of early apoptosis and late apoptosis using Flowjo software.
Background: Flow cytometry measures light scatter and fluorescence of single cells or particles in a stream.

In series [2] the test system is A549 cell line. In words: Cell cycle analysis by PI flow cytometry. Format: cell-based, human. To be noted: 72 h; for cell cycle S population: untreated cells 4.46%. As to the method: For this purpose, A549 cells were treated with two concentrations of 6n (10 and 15 μM) for 72 h (Fig. 6). […] A slight decrease in the G2/M population was also observed.
The effect of 6n was also assessed according to our previous protocol. Briefly, 1 × 10^5 A549 cells were seeded in a 24-well plate in […] complete cell culture media and after 24 h, were treated with two concentrations of 6n (10 and 15 μM). After 72 h, the cells were harvested and washed twice with cold 1X pbs and stabilized with cold ethanol (70%) in drop-wised manner while vortexing. After keeping one day in the freezer, the fixed cells were washed with 1X pbs and treated with a mixture of ribonuclease (10 µg/ml) (Sigma-Aldrich, Germany) to remove RNA, and Propidium Iodide (PI, 20 µg/ml) (Sigma-Aldrich, Germany) to stain DNA. The cells were acquired on BD FACS Calibur™ flow cytometry (BD Biosciences, San Jose, CA, USA). The data were analyzed with FlowJo software packages version 10.

Each structure is given as a SMILES string.

For orientation: melting point means the temperature of the solid-liquid transition. Take `Cn1c(=O)cc(Cl)n(Cc2nc3ccc(Br)cc3c(=O)n2-c2ccccc2)c1=O` [Compound 6a, 1-((6-Bromo-4-Oxo-3-Phenyl-3,4-Dihydroquinazolin-2-Yl)Methyl)-6-Chloro-3-Methylpyrimidine-2,4(1H,3H)-Dione]: the melting point lay in the range of 246 to 248 °C.
Same read-out and setting: for `Cn1c(=O)cc(Cl)n(Cc2nc3ccc(Br)cc3c(=O)n2-c2cccc(C#N)c2)c1=O` [Compound 6b, 3-(6-Bromo-2-((6-Chloro-3-Methyl-2,4-Dioxo-3,4-Dihydropyrimidin-1(2H)-Yl)Methyl)-4-Oxoquinazolin-3(4H)-Yl) Benzonitrile] the value was 255 to 257 °C; for `Cn1c(=O)cc(Cl)n(Cc2nc3ccc(Br)cc3c(=O)n2-c2cccc(F)c2)c1=O` [Compound 6c, 1-((6-Bromo-3-(3-Fluorophenyl)-4-Oxo-3,4-Dihydroquinazolin-2-Yl)Methyl)-6-Chloro-3-Methylpyrimidine-2,4(1H,3H)-Dione], 243 to 244 °C.
The molecule `Cn1c(=O)cc(Cl)n(Cc2nc3ccc(Br)cc3c(=O)n2-c2cccc(Cl)c2)c1=O` [Compound 6d, 1-((6-Bromo-3-(3-Chlorophenyl)-4-Oxo-3,4-Dihydroquinazolin-2-Yl)Methyl)-6-Chloro-3-Methylpyrimidine-2,4(1H,3H)-Dione] displayed a melting point of 259 to 260 °C.
Same read-out and setting: next, `Cn1c(=O)cc(Cl)n(Cc2nc3ccc(Br)cc3c(=O)n2-c2cccc(Br)c2)c1=O` [Compound 6e, 1-((6-Bromo-3-(3-Bromophenyl)-4-Oxo-3,4-Dihydroquinazolin-2-Yl)Methyl)-6-Chloro-3-Methylpyrimidine-2,4(1H,3H)-Dione]: 251 to 252 °C.
Same read-out and setting: for `Cn1c(=O)cc(Cl)n(Cc2nc3ccc(Br)cc3c(=O)n2-c2ccc(F)cc2)c1=O` [Compound 6f., 1-((6-Bromo-3-(4-Fluorophenyl)-4-Oxo-3,4-Dihydroquinazolin-2-Yl)Methyl)-6-Chloro-3-Methylpyrimidine-2,4(1H,3H)-Dione] the value was 240 to 242 °C.
Still for that read-out and setting: for `Cn1c(=O)cc(Cl)n(Cc2nc3ccc(Br)cc3c(=O)n2-c2ccc(Cl)cc2)c1=O` [Compound 6g, 1-((6-Bromo-3-(4-Chlorophenyl)-4-Oxo-3,4-Dihydroquinazolin-2-Yl)Methyl)-6-Chloro-3-Methylpyrimidine-2,4(1H,3H)-Dione] the value was 225 to 226 °C.
As for `Cn1c(=O)cc(Cl)n(Cc2nc3ccc(Br)cc3c(=O)n2-c2ccc(F)c(Cl)c2)c1=O` [Compound 6n, 1-((6-Bromo-3-(3-Chloro-4-Fluorophenyl)-4-Oxo-3,4-Dihydroquinazolin-2-Yl)Methyl)-6-Chloro-3-Methylpyrimidine-2,4(1H,3H)-Dione], in the series with A549 cell line [1] (5 µM), the “early apoptotic cells Q3 (Av pos/PI neg)” value was found to be 2.61% and the “late apoptotic cells Q2 (Av pos/PI pos)” value was 21.2%. The “apoptotic death (sum of early and late apoptosis)” value with A549 cell line [1] (15 µM) was 65.08%. For the same molecule, the “induction of apoptosis (in words)” value in the series on A549 cell line [1] (5, 10, 15 µM) was “significantly induced apoptotic death in the dose dependent manner”. Moreover, the “cell cycle S population” value in the series on A549 cell line [2] (10 μM) was found to be 8.91%. The “cell cycle S population” value in the series with A549 cell line [2] (15 μM) worked out at 11.6%. Also, the “effect on cell cycle (in words)” value in the series on A549 cell line [2] (10 and 15 μM) was “could induce arrest at S-phase”.
